According to ChEMBL document CHEMBL4806959, “Antagonistic peptides for frizzled-1 and frizzled-2” (2015):
Calls of active or inactive are those of the source. The rule behind the calls is not given here. Residues, ends and D or L forms follow the SMILES beside them.

Experiments:
[1] = biological target: T1, Frizzled-2 (Homo sapiens, UniProt Q14332); assay: Antagonist activity at Wnt3a-stimulated frizzled-2 (unknown origin) expressed in human HEK293superTOP flash cells incubated for 24 hrs by luciferase reporter gene assay; assay type: functional, cell-based; details: HEK293, filed as antagonist
T1 sequence (Q14332 24-565 limits assumed): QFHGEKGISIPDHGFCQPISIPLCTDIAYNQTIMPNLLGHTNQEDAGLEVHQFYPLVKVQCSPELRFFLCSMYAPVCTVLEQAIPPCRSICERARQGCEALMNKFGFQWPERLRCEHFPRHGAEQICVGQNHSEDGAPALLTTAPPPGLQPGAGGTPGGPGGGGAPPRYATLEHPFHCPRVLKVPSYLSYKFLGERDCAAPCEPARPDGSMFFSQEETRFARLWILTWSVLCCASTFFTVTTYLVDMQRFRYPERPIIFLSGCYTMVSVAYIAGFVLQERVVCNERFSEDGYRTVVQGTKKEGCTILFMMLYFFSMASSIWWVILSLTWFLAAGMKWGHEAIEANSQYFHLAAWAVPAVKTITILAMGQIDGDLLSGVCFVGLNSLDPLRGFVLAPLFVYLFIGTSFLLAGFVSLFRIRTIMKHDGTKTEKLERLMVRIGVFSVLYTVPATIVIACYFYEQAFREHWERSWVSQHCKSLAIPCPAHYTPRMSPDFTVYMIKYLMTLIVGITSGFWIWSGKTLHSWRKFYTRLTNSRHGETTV

[2] = biological target: T1, Frizzled-2; assay: Antagonist activity at frizzled-2 (unknown origin) expressed in human HEK293superTOP flash cells incubated for 24 hrs by luciferase reporter gene assay; assay type: functional, cell-based; details: HEK293
[3] = biological target: T2, Frizzled-4 (Homo sapiens) (UniProt Q9ULV1); assay: Antagonist activity at Wnt3a-stimulaed frizzled-4 (unknown origin) expressed in human HEK293superTOP flash cells incubated for 24 hrs by luciferase reporter gene assay; assay type: functional, cell-based; details: HEK293
T2 sequence (whole entry): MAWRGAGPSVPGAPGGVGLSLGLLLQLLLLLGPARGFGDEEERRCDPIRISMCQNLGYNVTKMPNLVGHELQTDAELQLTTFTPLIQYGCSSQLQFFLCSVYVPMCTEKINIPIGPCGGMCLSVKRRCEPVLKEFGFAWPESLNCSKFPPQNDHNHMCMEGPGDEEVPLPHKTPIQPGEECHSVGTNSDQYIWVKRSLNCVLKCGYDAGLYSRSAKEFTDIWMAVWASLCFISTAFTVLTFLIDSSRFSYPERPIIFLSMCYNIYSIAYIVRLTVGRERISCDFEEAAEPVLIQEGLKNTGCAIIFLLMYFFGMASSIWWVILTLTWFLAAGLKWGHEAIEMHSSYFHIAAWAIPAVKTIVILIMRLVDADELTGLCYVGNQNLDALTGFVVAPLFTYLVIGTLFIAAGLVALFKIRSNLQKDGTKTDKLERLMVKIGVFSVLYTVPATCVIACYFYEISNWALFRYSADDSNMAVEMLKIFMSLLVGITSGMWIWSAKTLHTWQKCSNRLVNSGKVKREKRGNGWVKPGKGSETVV

[4] = biological target: Frizzled-5 (Homo sapiens) (UniProt Q13467); assay: Antagonist activity at Wnt3a-stimulaed frizzled-5 (unknown origin) expressed in human HEK293superTOP flash cells incubated for 24 hrs by luciferase reporter gene assay; assay type: functional, cell-based; details: HEK293
Chain of Frizzled-5 (Homo sapiens) (Q13467 whole entry): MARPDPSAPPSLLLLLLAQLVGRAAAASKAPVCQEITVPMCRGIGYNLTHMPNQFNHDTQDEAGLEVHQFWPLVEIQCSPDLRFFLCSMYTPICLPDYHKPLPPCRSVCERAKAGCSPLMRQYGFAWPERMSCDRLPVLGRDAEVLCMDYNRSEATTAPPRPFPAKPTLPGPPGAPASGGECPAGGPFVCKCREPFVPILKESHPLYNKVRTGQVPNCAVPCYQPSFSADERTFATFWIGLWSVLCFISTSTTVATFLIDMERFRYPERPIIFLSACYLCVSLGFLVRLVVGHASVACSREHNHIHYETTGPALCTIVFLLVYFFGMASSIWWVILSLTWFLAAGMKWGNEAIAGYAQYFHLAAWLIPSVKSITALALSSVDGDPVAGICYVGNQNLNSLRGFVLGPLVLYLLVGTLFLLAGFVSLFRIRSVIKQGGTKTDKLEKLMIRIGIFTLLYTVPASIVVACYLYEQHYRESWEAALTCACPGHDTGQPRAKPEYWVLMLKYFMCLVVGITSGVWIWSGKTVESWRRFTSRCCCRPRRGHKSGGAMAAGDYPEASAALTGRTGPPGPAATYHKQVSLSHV

[5] = biological target: Frizzled-1 (Rattus norvegicus) (UniProt Q08463); assay: Agonist activity at rat frizzled-1 expressed in human HEK293superTOP flash cells by luciferase reporter gene assay; assay type: cell-based; details: HEK293
Chain of Frizzled-1 (Rattus norvegicus) (Q08463 whole entry): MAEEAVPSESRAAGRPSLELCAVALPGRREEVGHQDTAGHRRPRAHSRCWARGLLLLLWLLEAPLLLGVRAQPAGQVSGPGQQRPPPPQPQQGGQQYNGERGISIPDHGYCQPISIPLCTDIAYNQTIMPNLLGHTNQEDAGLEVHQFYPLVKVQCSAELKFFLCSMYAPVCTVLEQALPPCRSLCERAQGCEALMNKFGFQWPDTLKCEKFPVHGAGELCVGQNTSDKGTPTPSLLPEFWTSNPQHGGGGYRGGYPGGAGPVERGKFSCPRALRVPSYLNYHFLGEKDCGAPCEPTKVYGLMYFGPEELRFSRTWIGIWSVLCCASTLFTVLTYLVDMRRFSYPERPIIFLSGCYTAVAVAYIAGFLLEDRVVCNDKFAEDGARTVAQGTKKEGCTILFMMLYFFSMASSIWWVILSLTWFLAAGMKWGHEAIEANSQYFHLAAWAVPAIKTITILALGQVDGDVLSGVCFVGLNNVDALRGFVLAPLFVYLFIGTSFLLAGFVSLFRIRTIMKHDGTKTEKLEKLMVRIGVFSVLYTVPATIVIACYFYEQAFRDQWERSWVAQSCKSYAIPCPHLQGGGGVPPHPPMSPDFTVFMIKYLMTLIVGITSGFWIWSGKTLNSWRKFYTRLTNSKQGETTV

[6] = biological target: Frizzled-2 (Rattus norvegicus) (UniProt Q08464); assay: Agonist activity at rat frizzled-2 expressed in human HEK293superTOP flash cells by luciferase reporter gene assay; assay type: cell-based; details: HEK293
Chain of Frizzled-2 (Rattus norvegicus) (Q08464 29-570 limits assumed): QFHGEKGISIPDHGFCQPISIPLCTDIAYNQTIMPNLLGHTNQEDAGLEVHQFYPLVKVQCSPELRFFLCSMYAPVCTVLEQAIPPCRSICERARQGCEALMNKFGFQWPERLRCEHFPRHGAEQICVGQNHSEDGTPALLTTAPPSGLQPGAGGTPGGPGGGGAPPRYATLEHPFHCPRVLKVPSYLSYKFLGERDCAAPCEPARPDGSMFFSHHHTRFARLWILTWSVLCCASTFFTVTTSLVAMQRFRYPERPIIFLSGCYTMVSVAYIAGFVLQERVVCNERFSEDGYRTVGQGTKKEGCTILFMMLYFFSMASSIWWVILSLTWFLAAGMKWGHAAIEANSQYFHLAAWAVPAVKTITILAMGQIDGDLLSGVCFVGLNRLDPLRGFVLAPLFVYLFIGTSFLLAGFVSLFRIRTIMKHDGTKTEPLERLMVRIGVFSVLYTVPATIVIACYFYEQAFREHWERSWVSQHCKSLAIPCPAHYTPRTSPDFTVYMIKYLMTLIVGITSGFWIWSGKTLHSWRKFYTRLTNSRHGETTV

[7] = biological target: Frizzled-1 (Rattus norvegicus) (UniProt Q08463); assay: Agonist activity at rat frizzled-1 expressed in CHO cells by luciferase reporter gene assay; assay type: cell-based
[8] = biological target: Frizzled-2 (Rattus norvegicus) (UniProt Q08464); assay: Agonist activity at rat frizzled-2 expressed in CHO cells by luciferase reporter gene assay; assay type: cell-based
[9] = biological target: Frizzled-1 (Rattus norvegicus) (UniProt Q08463); assay: Agonist activity at rat frizzled-1 expressed in African green monkey COS7 cells by luciferase reporter gene assay; assay type: cell-based
[10] = biological target: Frizzled-2 (Rattus norvegicus) (UniProt Q08464); assay: Agonist activity at rat frizzled-2 expressed in African green monkey COS7 cells by luciferase reporter gene assay; assay type: cell-based
[11] = organism: Rattus norvegicus; assay: Selectivity index, ratio of IC50 for Wnt3a-stimulated rat frizzled-1 expressed in human HEK293superTOPFlash cells to IC50 for Wnt3a-stimulated rat frizzled-2 expressed in human HEK293superTOPFlash cells; assay type: cell-based
[12] = biological target: T2, Frizzled-4 (Homo sapiens); assay: Antagonist activity at Wnt3a-stimulaed human frizzled-4 expressed in human HEK293superTOP flash cells at 10 nM incubated for 24 hrs by luciferase reporter gene assay; assay type: functional, cell-based; details: HEK293
[13] = biological target: Frizzled-5 (Homo sapiens) (UniProt Q13467); assay: Antagonist activity at Wnt3a-stimulaed human frizzled-5 expressed in human HEK293superTOP flash cells at 10 nM incubated for 24 hrs by luciferase reporter gene assay; assay type: functional, cell-based; details: HEK293
[14] = biological target: Frizzled-1 (Mus musculus) (UniProt O70421); assay: Antagonist activity at Wnt3a-stimulaed mouse frizzled-1 expressed in human HEK293superTOP flash cells incubated for 24 hrs by luciferase reporter gene assay; assay type: cell-based; details: HEK293, filed as antagonist
Chain of Frizzled-1 (Mus musculus) (O70421 whole entry, looked up): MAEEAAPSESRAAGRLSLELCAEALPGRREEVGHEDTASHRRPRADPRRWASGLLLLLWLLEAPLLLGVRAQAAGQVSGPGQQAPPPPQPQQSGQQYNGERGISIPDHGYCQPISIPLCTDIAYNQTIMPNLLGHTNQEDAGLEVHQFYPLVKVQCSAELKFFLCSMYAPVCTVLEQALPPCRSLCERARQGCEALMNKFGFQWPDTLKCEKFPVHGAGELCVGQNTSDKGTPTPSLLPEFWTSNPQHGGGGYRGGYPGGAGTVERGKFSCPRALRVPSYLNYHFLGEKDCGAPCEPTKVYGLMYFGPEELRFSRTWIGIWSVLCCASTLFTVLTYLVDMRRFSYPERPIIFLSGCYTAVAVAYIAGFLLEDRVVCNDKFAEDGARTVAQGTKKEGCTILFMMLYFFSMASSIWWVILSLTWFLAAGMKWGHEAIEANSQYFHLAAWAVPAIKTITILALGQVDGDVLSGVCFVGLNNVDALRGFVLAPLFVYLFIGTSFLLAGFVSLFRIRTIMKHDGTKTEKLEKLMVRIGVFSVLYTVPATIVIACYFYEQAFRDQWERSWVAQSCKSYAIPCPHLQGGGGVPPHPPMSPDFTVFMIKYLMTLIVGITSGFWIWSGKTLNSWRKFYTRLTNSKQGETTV

[15] = biological target: Frizzled-2 (Mus musculus) (UniProt Q9JIP6); assay: Antagonist activity at Wnt3a-stimulaed mouse frizzled-2 expressed in human HEK293superTOP flash cells incubated for 24 hrs by luciferase reporter gene assay; assay type: cell-based; details: HEK293, filed as antagonist
Chain of Frizzled-2 (Mus musculus) (Q9JIP6 whole entry, looked up): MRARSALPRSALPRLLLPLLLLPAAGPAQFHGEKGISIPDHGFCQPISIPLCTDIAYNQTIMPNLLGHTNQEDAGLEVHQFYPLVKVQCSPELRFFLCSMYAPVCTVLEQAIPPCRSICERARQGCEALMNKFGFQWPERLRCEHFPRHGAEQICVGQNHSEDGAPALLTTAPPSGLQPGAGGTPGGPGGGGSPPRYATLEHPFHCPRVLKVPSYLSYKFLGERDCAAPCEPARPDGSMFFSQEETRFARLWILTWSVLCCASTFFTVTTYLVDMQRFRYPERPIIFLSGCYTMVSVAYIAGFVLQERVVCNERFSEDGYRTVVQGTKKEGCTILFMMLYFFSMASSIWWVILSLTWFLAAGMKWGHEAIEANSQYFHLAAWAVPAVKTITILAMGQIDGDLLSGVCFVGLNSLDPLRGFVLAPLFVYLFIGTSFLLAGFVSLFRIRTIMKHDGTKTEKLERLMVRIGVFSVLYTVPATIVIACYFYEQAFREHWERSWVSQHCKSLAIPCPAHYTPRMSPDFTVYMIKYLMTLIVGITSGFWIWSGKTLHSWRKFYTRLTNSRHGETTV

[16] = test system: Mus musculus; assay: Cardioprotective activity against myocardial infarction Swiss mouse model assessed as animal mortality at 6 ug/kg/day, sc via osmotic pumps for 5 weeks (reference value: 35%); assay type: functional; details: 840 h, at 6 µg/kg/day
[17] = test system: Mus musculus; assay: Cardioprotective activity against myocardial infarction Swiss mouse model assessed as reduction in wet lung weight at 6 ug/kg/day, sc via osmotic pumps for 5 weeks; assay type: functional, organism-based; details: dose 6.0 µg/kg/day
[18] = test system: Mus musculus; assay: Cardioprotective activity against myocardial infarction Swiss mouse model assessed as increase in ejection fraction at 6 ug/kg/day, sc via osmotic pumps for 5 weeks by echocardiographic analysis relative to control; assay type: functional; details: dose 6 µg/kg/day
[19] = test system: Mus musculus; assay: Cardioprotective activity against myocardial infarction Swiss mouse model assessed as LVAd at 6 ug/kg/day, sc via osmotic pumps for 5 weeks by echocardiographic analysis (reference value: 0.5 +/-0.01 cm2); assay type: functional; details: dose 6 µg/kg/day
[20] = test system: Mus musculus; assay: Cardioprotective activity against myocardial infarction Swiss mouse model assessed as LVAs at 6 ug/kg/day, sc via osmotic pumps for 5 weeks by echocardiographic analysis (reference value: 0.44 +/-0.01 cm2); assay type: functional; details: dose 6 µg/kg/day
[21] = test system: Mus musculus; assay: Cardioprotective activity against myocardial infarction Swiss mouse model assessed as EDV_L at 6 ug/kg/day, sc via osmotic pumps for 5 weeks by echocardiographic analysis (reference value: 0.214 +/-0.02 cm3); assay type: functional; details: dose 6 µg/kg/day
[22] = test system: Mus musculus; assay: Cardioprotective activity against myocardial infarction Swiss mouse model assessed as ESV_L at 6 ug/kg/day, sc via osmotic pumps for 5 weeks by echocardiographic analysis (reference value: 0.179 +/-0.007 cm3); assay type: functional; details: dose 6 µg/kg/day
[23] = test system: Mus musculus; assay: Cardioprotective activity against myocardial infarction Swiss mouse model assessed as SV_L at 6 ug/kg/day, sc via osmotic pumps for 5 weeks by echocardiographic analysis (reference value: 0.035 +/-0.005 cm3); assay type: functional; details: dose 6 µg/kg/day
[24] = test system: Mus musculus; assay: Cardioprotective activity against myocardial infarction Swiss mouse model assessed as ratio of maximum positive slope to pressure of positive slope at 6 ug/kg/day, sc via osmotic pumps for 5 weeks by Millar pressure recording based analysis (reference value: 43.78 +/-1.93 1/sec); assay type: functional; details: dose 6 µg/kg/day
[25] = test system: Mus musculus; assay: Cardioprotective activity against myocardial infarction Swiss mouse model assessed as ratio of maximum negative slope to pressure of negative slope at 6 ug/kg/day, sc via osmotic pumps for 5 weeks by Millar pressure recording based analysis (reference value: 33.29 +/-1.14 1/sec); assay type: functional; details: dose 6 µg/kg/day
[26] = test system: Mus musculus; assay: Cardioprotective activity against myocardial infarction Swiss mouse model assessed as reduction in infarction expansion in heart at 6 ug/kg/day, sc via osmotic pumps for 5 weeks by macroscopic analysis; assay type: functional, organism-based; details: dose 6.0 µg/kg/day
[27] = test system: Mus musculus; assay: Cardioprotective activity against myocardial infarction Swiss mouse model assessed as ventricular dilation at 6 ug/kg/day, sc via osmotic pumps for 5 weeks by macroscopic analysis; assay type: functional, organism-based; details: dose 6.0 µg/kg/day
[28] = test system: Mus musculus; assay: Cardioprotective activity against myocardial infarction Swiss mouse model assessed as reduction in infarct area in heart at 6 ug/kg/day, sc via osmotic pumps for 2 to 5 weeks by immunohistochemical staining analysis; assay type: functional, organism-based; details: dose 6.0 µg/kg/day, time 2-5 weeks
[29] = test system: Mus musculus; assay: Cardioprotective activity against myocardial infarction Swiss mouse model assessed as increase in infarct area thickness in heart at 6 ug/kg/day, sc via osmotic pumps for 2 to 5 weeks by immunohistochemical staining analysis; assay type: functional, organism-based; details: dose 6.0 µg/kg/day, time 2-5 weeks
[30] = test system: Mus musculus; assay: Cardioprotective activity against myocardial infarction Swiss mouse model assessed as increase in myofibroblast number at 6 ug/kg/day, sc via osmotic pumps for 2 weeks by immunohistochemical staining analysis relative to control; assay type: functional; details: dose 6 µg/kg/day
[31] = test system: Mus musculus; assay: Cardioprotective activity against myocardial infarction Swiss mouse model assessed as increase in alpha-SMA gene expression in heart at 6 ug/kg/day, sc via osmotic pumps for 5 weeks by qPCR analysis; assay type: functional, organism-based; details: dose 6.0 µg/kg/day
[32] = test system: Mus musculus; assay: Cardioprotective activity against myocardial infarction Swiss mouse model assessed as increase in alpha-SMA protein expression in heart at 6 ug/kg/day, sc via osmotic pumps for 5 weeks by western blot analysis; assay type: functional, organism-based; details: dose 6.0 µg/kg/day
[33] = test system: Mus musculus; assay: Cardioprotective activity against myocardial infarction Swiss mouse model assessed as increase in amount of blood vessels in heart at 6 ug/kg/day, sc via osmotic pumps for 5 weeks by immunohistochemical staining analysis; assay type: functional, organism-based; details: dose 6.0 µg/kg/day
[34] = test system: Mus musculus; assay: Cardioprotective activity against myocardial infarction Swiss mouse model assessed as reduction in collagen level in infarct area at 6 ug/kg/day, sc via osmotic pumps for 5 weeks by immunohistochemical staining analysis; assay type: functional, organism-based; details: dose 6.0 µg/kg/day
[35] = biological target: Frizzled-1 (Homo sapiens) (UniProt Q9UP38); assay: Antagonist activity at Wnt3a-stimulaed human frizzled-1 expressed in human HEK293superTOP flash cells incubated for 24 hrs by luciferase reporter gene assay; assay type: functional, cell-based; details: HEK293, filed as antagonist
Chain of Frizzled-1 (Homo sapiens) (Q9UP38 70-647 limits assumed): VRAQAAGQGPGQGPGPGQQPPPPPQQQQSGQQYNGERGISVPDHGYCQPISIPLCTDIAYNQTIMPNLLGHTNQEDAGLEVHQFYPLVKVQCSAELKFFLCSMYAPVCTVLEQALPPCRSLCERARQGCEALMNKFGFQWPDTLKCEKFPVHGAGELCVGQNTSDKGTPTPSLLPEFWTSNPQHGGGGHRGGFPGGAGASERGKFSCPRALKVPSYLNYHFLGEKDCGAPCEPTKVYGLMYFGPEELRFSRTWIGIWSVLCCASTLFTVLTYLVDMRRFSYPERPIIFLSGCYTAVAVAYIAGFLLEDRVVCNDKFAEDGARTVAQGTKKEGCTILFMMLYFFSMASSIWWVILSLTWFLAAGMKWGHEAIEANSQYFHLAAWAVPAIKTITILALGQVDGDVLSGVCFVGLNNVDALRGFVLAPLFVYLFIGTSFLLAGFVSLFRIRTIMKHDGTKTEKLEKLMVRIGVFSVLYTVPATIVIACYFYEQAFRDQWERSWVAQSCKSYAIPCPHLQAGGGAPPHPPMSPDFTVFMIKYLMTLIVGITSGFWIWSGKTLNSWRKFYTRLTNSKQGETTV

[36] = biological target: T1, Frizzled-2; assay: Antagonist activity at Wnt3a-stimulaed human frizzled-2 expressed in human HEK293superTOP flash cells incubated for 24 hrs by luciferase reporter gene assay; assay type: functional, cell-based; details: HEK293, filed as antagonist
[37] = test system: Mus musculus; assay: Cardioprotective activity against myocardial infarction Swiss mouse model assessed as increase in myofibroblast number at 6 ug/kg/day, sc via osmotic pumps for 5 weeks by immunohistochemical staining analysis; assay type: functional, organism-based; details: dose 6.0 µg/kg/day

CSCC[C@H](NC(=O)CNC(=O)[C@H](CCC(=O)O)NC(=O)[C@H](CO)NC(=O)[C@@H](NC(=O)[C@H](CCCCN)NC(=O)[C@H](CC(N)=O)NC(=O)[C@H](CS)NC(C)=O)[C@@H](C)O)C(=O)N[C@@H](CC(=O)O)C(=O)NCC(=O)N[C@@H](CS)C(=O)N[C@@H](CCC(=O)O)C(=O)N[C@@H](CC(C)C)C(N)=O (Ac-CNKTSEGMDGCEL-NH2)
inhibition [1]: Dose-Dependent Effect | inhibition [2]: inactive | inhibition [3]: inactive | inhibition [4]: inactive | Activity [5]: inactive | Activity [6]: inactive | Activity [7]: inactive | Activity [8]: inactive | Activity [9]: inactive | Activity [10]: inactive | Ratio IC50 [11]: 100 | inhibition [12]: inactive | inhibition [13]: inactive | inhibition [14]: Active | inhibition [15]: Active | mortality at 0.006 mg/kg/day [16]: 0% | Activity [17]: Active | fold change (FC) [18]: 2 | Activity [19]: 0.38 cm2 | Activity [20]: 0.3 cm2 | Activity [21]: 0.132 cm3 | Activity [22]: 0.09 cm3 | Activity [23]: 0.041 cm3 | Activity [24]: 69.13 s⁻¹ | Activity [25]: 32.84 s⁻¹ | Activity [26]: Active | Activity [27]: Active | Activity [28]: Active | Activity [29]: Active | fold change (FC) [30]: >4 | Activity [31]: Active | Activity [32]: Active | Activity [33]: Active | Activity [34]: Active | inhibition [35]: Active | inhibition [36]: Active | Activity [37]: Active
